Assays:
TXK = molecular target: T1, TXK (Homo sapiens, UniProt P42681); experiment: NanoBRET in-cell target engagement, TXK; format: binding
T1 construct: host or cells: HEK296T (so in the source)
T1 sequence (P42681 1-527): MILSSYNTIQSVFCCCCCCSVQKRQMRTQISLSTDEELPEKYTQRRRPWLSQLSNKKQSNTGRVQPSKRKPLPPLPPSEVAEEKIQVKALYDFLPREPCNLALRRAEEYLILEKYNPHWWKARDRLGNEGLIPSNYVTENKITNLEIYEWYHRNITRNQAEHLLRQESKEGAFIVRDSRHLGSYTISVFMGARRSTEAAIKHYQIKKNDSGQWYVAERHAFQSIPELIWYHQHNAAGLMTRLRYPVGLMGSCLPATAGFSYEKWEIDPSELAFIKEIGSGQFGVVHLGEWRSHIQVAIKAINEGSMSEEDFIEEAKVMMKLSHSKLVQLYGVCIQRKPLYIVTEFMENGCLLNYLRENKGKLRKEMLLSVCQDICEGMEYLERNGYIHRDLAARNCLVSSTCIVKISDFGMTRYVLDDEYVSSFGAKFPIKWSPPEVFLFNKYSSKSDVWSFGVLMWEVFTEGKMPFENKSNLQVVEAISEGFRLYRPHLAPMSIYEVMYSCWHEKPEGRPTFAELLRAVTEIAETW
Description: (§1) In-cell target engagement was performed at Reaction Biology Corporation, using NanoBRET technology. Very briefly, HEK296T cells were transfected and treated in duplicate with JS25 for 1 h of incubation. The compound was diluted 10 times with 3-fold dilution, starting at 1 μM. Curve fits were performed only when the % NanoBret signal at the highest concentration of compounds was less than 55%. The IC50 values were determined using GraphPad Prism 8 ([…]).

JAK3 = molecular target: T2, JAK3 (Homo sapiens, UniProt P52333); experiment: NanoBRET in-cell target engagement, JAK3; format: binding; conditions: HEK296T cells, 1 h incubation, average of duplicates
T2 construct: host or cells: HEK296T (so in the source)
Description: as §1

JURKAT cells = experiment: Cell viability assay (CellTiter-Glo), JURKAT; format: cell-based; conditions: Homo sapiens, 72 h, n = 3
Description: All cell lines were purchased from ATCC, except for DoHH-2 cells that were obtained from DSMZ. Cells were cultivated in complete DMEM supplemented with 10% (vol/vol) FBS (Gibco) and 1% of penicillin/streptomycin (Gibco). The cells were grown in a humidified atmosphere of 5% CO2 at 37°C, with the medium changed every other day.
(§2) Cells were inoculated at a density of 5000 cells/well. Serially diluted compounds (starting at 50 μM) were added 24 h later. The assay was performed in triplicates. After 72 h of incubation, cellular viability was assessed by CellTiter-Glo (Promega) according to the manufacturer’s instructions. The values were normalized with the vehicle (DMSO), and the IC50 was calculated using GraphPad Prism 8.

HBEC-5i cells = experiment: Cell viability assay (CellTiter-Glo), HBEC-5i; format: cell-based; conditions: Homo sapiens, 72 h, n = 3
Description: as §2
(§3) Human cerebral microvascular endothelial cells (HBEC-5i) were cultured as a monolayer on attachment factor protein solution (AF)-coated T-flasks (Gibco), using DMEM/F12 medium (Gibco), supplemented with 10% FBS, 1% penicillin/streptomycin, and 40.0 μg/mL endothelial cell growth supplement (ECGS, Sigma), according to the manufacturer’s instructions. The capacity of the compounds to cross the brain–blood barrier (BBB) was evaluated using an in vitro HBEC-5i cell model, as previously described.[29] Samples from the apical and basolateral sides were collected, and fluorescence intensity was measured using a Varioskan LUX multimode microplate reader. The retention was considered the difference between the initial fluorescence of compounds (100%) and the aggregated apical and basolateral fluorescence.

HBEC-5i cell model = experiment: In vitro blood–brain barrier permeability (translocation), HBEC-5i cell model; format: in vitro ADME, human; conditions: Translocation 24 h, compound 15 μM
Description: as §3

primary DLBCL samples = experiment: Ex vivo model of diffuse large B-cell lymphoma (Pharmacoscopy, drug response score); format: cell-based, human; conditions: 72 h, 4-point dose–response from 10 μM
BTK [1] = molecular target: T3, BTK (Homo sapiens, UniProt Q06187); parameters: purchased Promega Corporation V2941; conditions: first value of 5.8/28 in Table S3; ref 23 (SI ref 20); read-out: IC50 (potency against BTK), earlier value of JS25; cited from earlier work
BTK [2] = molecular target: T3, BTK; experiment: BTK degradation in Raji cells (Western blot); format: cell-based; parameters: endogenous in cells; host or cells: Raji cells (Burkitt's lymphoma); conditions: 10 μM
Description: Raji cells were inoculated at 0.5 × 10^6 cells/mL, and JS25 was added at a final concentration of 10 μM. At 0, 4, and 15 h of incubation, the cells were harvested, and the pellets were resuspended in lysis buffer (20 mM Tris–HCl, 150 mM NaCl, pH 8.0, 0.1% Triton X-100), supplemented with EDTA-free Protease Inhibitor Cocktail (Merck) and DNase I (Merck). The protein concentration was determined using the Pierce BCA Protein Assay Kit (Thermo Scientific). Western blot was performed with rabbit BTK antibody (1:1000; 3533, Cell Signaling Technology), mouse α-Tubulin antibody (1:5000; 5168, Merck), goat anti-rabbit IgG (H + L) secondary antibody HRP (1:7000; 65-6120, Invitrogen), and goat anti-mouse IgG (H + L) secondary antibody HRP (1:5000; 2-6520, Invitrogen).

T3 sequence (Q06187 whole entry): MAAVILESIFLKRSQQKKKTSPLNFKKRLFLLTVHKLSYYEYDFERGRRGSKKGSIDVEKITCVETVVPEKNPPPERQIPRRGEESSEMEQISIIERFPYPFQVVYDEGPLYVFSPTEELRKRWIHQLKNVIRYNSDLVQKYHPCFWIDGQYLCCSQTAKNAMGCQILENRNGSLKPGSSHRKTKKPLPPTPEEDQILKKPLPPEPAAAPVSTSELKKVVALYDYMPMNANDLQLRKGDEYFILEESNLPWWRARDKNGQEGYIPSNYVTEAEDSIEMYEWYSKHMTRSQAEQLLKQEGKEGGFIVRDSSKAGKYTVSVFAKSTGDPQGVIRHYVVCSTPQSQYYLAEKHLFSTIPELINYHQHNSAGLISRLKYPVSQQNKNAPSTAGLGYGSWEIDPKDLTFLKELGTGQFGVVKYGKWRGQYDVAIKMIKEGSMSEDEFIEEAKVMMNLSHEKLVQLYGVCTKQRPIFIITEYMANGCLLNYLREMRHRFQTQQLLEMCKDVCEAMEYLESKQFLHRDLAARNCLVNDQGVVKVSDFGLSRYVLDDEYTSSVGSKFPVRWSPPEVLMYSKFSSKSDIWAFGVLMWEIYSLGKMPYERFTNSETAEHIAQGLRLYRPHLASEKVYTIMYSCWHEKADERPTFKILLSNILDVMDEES
T2 sequence (P52333 whole entry): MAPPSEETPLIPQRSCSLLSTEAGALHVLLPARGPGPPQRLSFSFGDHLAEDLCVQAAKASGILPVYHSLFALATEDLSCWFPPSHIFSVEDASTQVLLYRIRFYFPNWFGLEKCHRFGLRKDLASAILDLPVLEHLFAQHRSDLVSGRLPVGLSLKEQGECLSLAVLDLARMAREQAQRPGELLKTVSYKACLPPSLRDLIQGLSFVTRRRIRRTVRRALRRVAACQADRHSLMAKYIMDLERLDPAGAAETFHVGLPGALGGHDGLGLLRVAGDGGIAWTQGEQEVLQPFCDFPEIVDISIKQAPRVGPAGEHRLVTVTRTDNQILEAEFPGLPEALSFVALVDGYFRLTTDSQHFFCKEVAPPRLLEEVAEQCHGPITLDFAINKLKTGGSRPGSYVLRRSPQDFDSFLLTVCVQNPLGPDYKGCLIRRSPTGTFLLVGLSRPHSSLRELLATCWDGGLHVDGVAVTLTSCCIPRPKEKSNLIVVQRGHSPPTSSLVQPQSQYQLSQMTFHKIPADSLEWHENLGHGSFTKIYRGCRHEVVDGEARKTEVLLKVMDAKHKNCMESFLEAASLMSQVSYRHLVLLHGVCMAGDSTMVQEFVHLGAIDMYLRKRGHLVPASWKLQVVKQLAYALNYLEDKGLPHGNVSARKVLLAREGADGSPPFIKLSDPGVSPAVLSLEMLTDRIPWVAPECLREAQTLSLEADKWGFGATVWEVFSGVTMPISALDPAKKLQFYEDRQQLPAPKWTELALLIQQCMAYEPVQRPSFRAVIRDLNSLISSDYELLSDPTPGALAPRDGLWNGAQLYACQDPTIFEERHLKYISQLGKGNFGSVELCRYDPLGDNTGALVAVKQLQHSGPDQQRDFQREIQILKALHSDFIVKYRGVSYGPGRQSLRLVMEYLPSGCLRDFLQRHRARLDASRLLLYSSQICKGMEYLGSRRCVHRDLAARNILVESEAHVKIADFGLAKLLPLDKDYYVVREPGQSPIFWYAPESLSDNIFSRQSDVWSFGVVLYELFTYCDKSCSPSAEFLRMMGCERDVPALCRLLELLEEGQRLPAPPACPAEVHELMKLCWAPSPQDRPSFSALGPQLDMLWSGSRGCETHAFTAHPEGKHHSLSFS

In the case of C=CC(=O)Nc1cc(C)cc(-n2c(=O)ccc3cnc4ccc(-c5ccc(NS(C)(=O)=O)cc5)cc4c32)c1 [JS25], the “selectivity for BTK relative to TXK” value (TXK) is reported as roughly 7 fold, the IC50 (TXK; HEK296T cells, 1 h incubation, average of duplicates) is reported as 0.19 µM and the “selectivity (kinase/BTK), TXK” value (TXK; IC50 kinase/IC50 BTK) is reported as 6.7. The IC50 (JAK3) was greater than 3 µM, the IC50 (JURKAT cells) was 38.4 ± 0.07 µM and the IC50 (HBEC-5i cells) was 23.4 ± 0.98 µM. The “% Fluorescence, Basolateral side (permeability to the BBB)” value (HBEC-5i cell model) was 28.5%, the “patients with off-target or nonspecific killing (DRS < 0)” value (primary DLBCL samples; 11 patients) was roughly 36% and the “patients with “on-target” effect (DRS > 0)” value (primary DLBCL samples; JS25 11 patients, ibrutinib 10 patients) was 64%. For the same molecule, the IC50 (BTK [1]) was 0.0058 µM, the BTK degradation (BTK [2]; 4 h) was “evident” and the BTK degradation (BTK [2]; 15 h) was “almost completed”.
